In brackets after ≈: the same amount, converted by molar mass. Activity calls are given as the source filed them. The calls are words filed in the database; no cut-off is given here.
Key:
[1] = In vitro cytotoxic activity against KB cell culture.; type: functional; settings: Homo sapiens, read-out: ED50 (the source's name)
KB [2] = experiment: In vitro cytotoxic activity against KB cell culture, expressed as ED50 (concentration resulting in a 50% cell number reduction) was determined; IA means inactive; type: functional, cell-based; settings: Homo sapiens
Mus musculus [3] = experiment: (§1) In vivo antileukemic activity against L-1210 mouse leukemia cells expressed as % T/C (median survival time of treated/control animals) x 100; IA means inactive; type: functional, organism-based
Mus musculus [4] = experiment: as §1; type: functional, organism-based; remark: listed apart in the source
L1210 [5] = experiment: Toxic dose against L1210 mouse leukemia cells was determined; type: toxicity
L1210 [6] = experiment: Active dose range for antileukemic activity against L1210 mouse leukemia cells was reported; dose range may vary from 20 to 80; type: functional
Mus musculus [7] = experiment: In vivo antileukemic activity against L-1210 mouse leukemia cells expressed as KE (log10 of initial tumor cell population minus log10 of tumor cell population at end of treatment); type: functional
Mus musculus [8] = experiment: In vivo antileukemic activity against L-1210 mouse leukemia cells expressed as % T/C (median survival time of treated/control animals) x 100 after 40 mg/kg administration of dose; type: functional
Mus musculus [9] = experiment: In vivo antileukemic activity against L-1210 mouse leukemia cells given as number of animals cured out of 6; type: functional
Mus musculus [10] = experiment: In vivo antileukemic activity against L-1210 mouse leukemia cells expressed as % T/C (median survival time of treated/control animals) x 100; type: functional
Mus musculus [11] = experiment: In vivo antileukemic activity against L-1210 mouse leukemia cells expressed as […] (log10 of initial tumor cell population minus log10 of tumor cell population at end of treatment); type: functional
Mus musculus [12] = experiment: In vivo antileukemic activity against L-1210 mouse leukemia cells and number of animals cured out of 6; type: functional
L1210 [13] = experiment: Active dose range for antileukemic activity against L1210 mouse leukemia cells was reported; type: functional
L1210 [14] = experiment: Active dose range for antileukemic activity against L1210 mouse leukemia cells was reported; dose range may vary from 7.5 to 60; type: functional
Mus musculus [15] = experiment: In vivo antileukemic activity against L-1210 mouse leukemia cells expressed as % T/C (median survival time of treated/control animals) x 100 after 60 mg/kg administration of dose; type: functional
L1210 [16] = experiment: Active dose range for antileukemic activity against L1210 mouse leukemia cells was reported; dose range may vary from 10 to 20; type: functional
Mus musculus [17] = experiment: In vivo antileukemic activity against L-1210 mouse leukemia cells expressed as % T/C (median survival time of treated/control animals) x 100 after 10 mg/kg administration of dose; type: functional
Mus musculus [18] = experiment: In vivo antileukemic activity against L-1210 mouse leukemia cells expressed as % T/C (median survival time of treated/control animals) x 100 after 80 mg/kg administration of dose; type: functional
L1210 [19] = experiment: Active dose range for antileukemic activity against L1210 mouse leukemia cells was reported; dose range may vary from 0.25 to 5.0; type: functional
Mus musculus [20] = experiment: In vivo antileukemic activity against L-1210 mouse leukemia cells expressed as % T/C (median survival time of treated/control animals) x 100 after 2.5 mg/kg administration of dose; type: functional
L1210 [21] = experiment: Active dose range for antileukemic activity against L1210 mouse leukemia cells was reported 2 to 4; type: functional
Mus musculus [22] = experiment: In vivo antileukemic activity against L-1210 mouse leukemia cells expressed as % T/C (median survival time of treated/control animals) x 100 after 2 mg/kg administration of dose; type: functional
L1210 [23] = experiment: In vivo antileukemic activity against L-1210 mouse leukemia cells expressed as % T/C (median survival time of treated/control animals) x 100; In active; type: functional, organism-based
L1210 [24] = experiment: Active dose range for antileukemic activity against L1210 mouse leukemia cells was reported; dose range may vary from 7.5 to 15.5; type: functional
Mus musculus [25] = experiment: In vivo antileukemic activity against L-1210 mouse leukemia cells expressed as % T/C (median survival time of treated/control animals) x 100 after 15.5 mg/kg administration of dose; type: functional
L1210 [26] = experiment: Active dose range for antileukemic activity against L1210 mouse leukemia cells was reported; dose range may vary from 10 to 80; type: functional
KB [27] = experiment: In vitro cytotoxic activity against KB cell culture, expressed as ED50 (concentration resulting in a 50% cell number reduction) was determined; In active; type: functional, cell-based; settings: Homo sapiens
L1210 [28] = experiment: Active dose range for antileukemic activity against L1210 mouse leukemia cells was reported; dose range may vary from 2 to 15.5; type: functional
Mus musculus [29] = experiment: In vivo antileukemic activity against L-1210 mouse leukemia cells expressed as % T/C (median survival time of treated/control animals) x 100 after 3.75 mg/kg administration of dose; type: functional

Row | SMILES | EC50 [1] [µg/mL] | Toxic dose (L1210 [5]) [mg/kg] | KE (Mus musculus [7]) [log10 units] | No. of cures (Mus musculus [9]) | further results
1 | CCC1(O)C(=O)OCc2c1cc1n(c2=O)Cc2cc3ccc(C(=O)[O-])cc3nc2-1.[Na+] (centres undefined) | 0.3 |  |  |  | ED50 (KB [2]): inactive; T/C (Mus musculus [3]): inactive; T/C (Mus musculus [4]): inactive
2 | CCC1(O)C(=O)OCc2c1cc1n(c2=O)Cc2cc3ccc(C(F)(F)F)cc3nc2-1 (centres undefined) | 0.9 (≈ 2.16 µM) |  |  |  | T/C (Mus musculus [3]): inactive
3 | CCC1(O)C(=O)OCc2c1cc1n(c2=O)Cc2cc3ccc(C)cc3nc2-1 (centres undefined) | 0.9 (≈ 2.48 µM) | > 80 | -0.68 | 0 | Active dose range (L1210 [6]): 80 mg/kg; T/C (Mus musculus [8]): 136%
4 | CCC1(O)C(=O)OCc2c1cc1n(c2=O)Cc2cc3ccc(CN)cc3nc2-1 (centres undefined) [listing 1 of 2 here] | 2 (≈ 5.3 µM) |  |  |  | 
5 | CCC1(O)C(=O)OCc2c1cc1n(c2=O)Cc2cc3ccc(CN)cc3nc2-1 (centres undefined) [listing 2 of 2 here] |  |  |  |  | T/C (Mus musculus [3]): inactive
6 | Br.CCC1(O)C(=O)OCc2c1cc1n(c2=O)Cc2cc3cc(O)c(O)cc3nc2-1 (centres undefined) | 3 | > 80 |  |  | T/C (Mus musculus [10]): 173%; T/C (Mus musculus [11]): 2.62%; No. of cures (Mus musculus [12]): 0; Active dose range (L1210 [13]): 10 mg/kg
7 | CCC1(O)C(=O)OCc2c1cc1n(c2=O)Cc2cc3ccc(O)cc3nc2-1 (centres undefined) | 0.02 (≈ 0.0549 µM) | > 60 | ≥ 5.68 | 3 | Active dose range (L1210 [14]): 60 mg/kg; T/C (Mus musculus [15]): 357%
8 | CCC1(O)C(=O)OCc2c1cc1n(c2=O)Cc2cc3ccc(CO)cc3nc2-1 (centres undefined) | 0.3 (≈ 0.793 µM) |  |  |  | T/C (Mus musculus [3]): inactive
9 | CCC1(O)C(=O)OCc2c1cc1n(c2=O)Cc2cc3cc(Cl)ccc3nc2-1 (centres undefined) | 0.01 (≈ 0.0261 µM) | 40 | ≥ 5.97 | 2 | Active dose range (L1210 [16]): 20 mg/kg; T/C (Mus musculus [17]): 280%
10 | CCC1(O)C(=O)OCc2c1cc1n(c2=O)Cc2cc3ccc([N+](=O)[O-])cc3nc2-1 (centres undefined) | 3 (≈ 7.63 µM) | > 80 | 0.29 | 0 | Active dose range (L1210 [6]): 80 mg/kg; T/C (Mus musculus [18]): 147%
11 | CC[C@@]1(O)C(=O)OCc2c1cc1n(c2=O)Cc2cc3c(N)cccc3nc2-1 [9-AMINOCAMPTOTHECIN] | 0.02 (≈ 0.055 µM) | 10 | ≥ 5.97 | 4 | Active dose range (L1210 [19]): 5 mg/kg; T/C (Mus musculus [20]): 361%
12 | CCC1(O)C(=O)OCc2c1cc1n(c2=O)Cc2cc3cc4c(cc3nc2-1)OCO4 (centres undefined) | 0.007 (≈ 0.0178 µM) | > 8 | ≥ 5.97 | 2 | Active dose range (L1210 [21]): 4 mg/kg; T/C (Mus musculus [22]): 325%
13 | CCC1(O)C(=O)OCc2c1cc1n(c2=O)Cc2cc3cc(OC)c(OC)cc3nc2-1 (centres undefined) | 9 (≈ 22 µM) |  |  |  | T/C (Mus musculus [3]): inactive
14 | CCC1(O)C(=O)OCc2c1cc1n(c2=O)Cc2cc3ccc(CN)cc3nc2-1.Cl (centres undefined) | 4 |  |  |  | 
15 | CCC1(O)C(=O)OCc2c1cc1n(c2=O)Cc2cc3ccc(C=O)cc3nc2-1 (centres undefined) | 5 (≈ 13.3 µM) |  |  |  | T/C (L1210 [23]): inactive
16 | CCC1(O)C(=O)OCc2c1cc1n(c2=O)Cc2cc3cc([N+](=O)[O-])ccc3nc2-1 (centres undefined) | 0.3 (≈ 0.763 µM) | 31 | ≥ 5.86 | 1 | Active dose range (L1210 [24]): 15.5 mg/kg; T/C (Mus musculus [25]): 219%
17 | CCC1(O)C(=O)OCc2c1cc1n(c2=O)Cc2cc3cc(C)ccc3nc2-1 (centres undefined) | 0.08 (≈ 0.221 µM) | > 80 | 4.66 | 0 | Active dose range (L1210 [26]): 80 mg/kg; T/C (Mus musculus [17]): 207%
18 | CCC1(O)C(=O)OCc2c1cc1n(c2=O)Cc2cc3ccc(/C=N\N=C(N)N)cc3nc2-1 (racemic) |  |  |  |  | T/C (L1210 [23]): inactive; ED50 (KB [27]): inactive
19 | CCC1(O)C(=O)OCc2c1cc1n(c2=O)Cc2cc3ccc(C(=O)OC)cc3nc2-1 (centres undefined) | 5 (≈ 12.3 µM) |  |  |  | T/C (Mus musculus [3]): inactive
20 | CCC1(O)C(=O)OCc2c1cc1n(c2=O)Cc2cc3ccc(N(C)C)cc3nc2-1 (centres undefined) |  |  |  |  | ED50 (KB [2]): inactive; T/C (Mus musculus [3]): inactive
21 | CCC1(O)C(=O)OCc2c1cc1n(c2=O)Cc2cc3ccc(N)cc3nc2-1 (centres undefined) | 0.02 (≈ 0.055 µM) | > 80 | 0.29 | 0 | Active dose range (L1210 [26]): 80 mg/kg; T/C (Mus musculus [8]): 147%
22 | CCC1(O)C(=O)OCc2c1cc1n(c2=O)Cc2cc3cc(O)c(O)cc3nc2-1 (centres undefined) | 1 (≈ 2.63 µM) | > 80 |  |  | T/C (Mus musculus [10]): 153%; T/C (Mus musculus [11]): 0.87%; No. of cures (Mus musculus [12]): 1; Active dose range (L1210 [13]): 10 mg/kg
23 | CCC1(O)C(=O)OCc2c1cc1n(c2=O)Cc2cc3cc(N)ccc3nc2-1 (centres undefined) | 0.03 (≈ 0.0826 µM) | 32 | ≥ 5.97 | 3 | Active dose range (L1210 [28]): 15.5 mg/kg; T/C (Mus musculus [29]): 365%
24 | CCC1(O)C(=O)OCc2c1cc1n(c2=O)Cc2cc3ccc(C#N)cc3nc2-1 (centres undefined) | 0.3 (≈ 0.803 µM) | 20 | ≥ 5.79 | 3 | Active dose range (L1210 [16]): <=20 mg kg-1; T/C (Mus musculus [17]): 365%

Source: ChEMBL document CHEMBL1123875, “Plant antitumor agents. 25. Total synthesis and antileukemic activity of ring A substituted camptothecin analogues. Structure-activity correlations” (J Med Chem, 1987)
